The supplement of paper PMC10307832

How the values were obtained:
Test in all cases: relative viability (nuclei count vs DMSO), 5 days (fraction); higher = more cells survive
BI-D1870 + Palbociclib = compound: CC(C)CCN1c2nc(Nc3cc(F)c(O)c(F)c3)ncc2N(C)C(=O)C1C [BI-D1870] + CC(=O)c1c(C)c2cnc(Nc3ccc(N4CCNCC4)cn3)nc2n(C2CCCC2)c1=O [Palbociclib] (partner 0.5 µM)
Method in brief: (§1)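 Five library-drug doses in √10 steps were combined with a fixed anchor-drug dose, or a single drug was given alone, by pin tool to lung cancer cell lines in 1536-well plates the day after seeding. Nuclei were stained and counted after 5 days. Relative viability is the nuclei count in treated wells over that in vehicle wells, taken as the median of duplicate plates.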

BI-D1870 + Navitoclax = compound: CC(C)CCN1c2nc(Nc3cc(F)c(O)c(F)c3)ncc2N(C)C(=O)C1C [BI-D1870] + CC1(C)CCC(c2ccc(Cl)cc2)=C(CN2CCN(c3ccc(C(=O)NS(=O)(=O)c4ccc(N[C@H](CCN5CCOCC5)CSc5ccccc5)c(S(=O)(=O)C(F)(F)F)c4)cc3)CC2)C1 [Navitoclax] (partner 0.5 µM)
Method in brief: as §1

Zebularine + Crizotinib = compound: O=c1ncccn1[C@@H]1O[C@H](CO)[C@@H](O)[C@H]1O [Zebularine] + C[C@@H](Oc1cc(-c2cnn(C3CCNCC3)c2)cnc1N)c1c(Cl)ccc(F)c1Cl [Crizotinib] (partner 1 µM)
Method in brief: as §1

Zebularine + Linsitinib = compound: O=c1ncccn1[C@@H]1O[C@H](CO)[C@@H](O)[C@H]1O [Zebularine] + C[C@]1(O)C[C@@H](c2nc(-c3ccc4ccc(-c5ccccc5)nc4c3)c3c(N)nccn32)C1 [Linsitinib] (partner 1 µM)
Method in brief: as §1

Row | Cell Line | relative viability (BI-D1870 + Palbociclib; first compound 0.04 µM) | relative viability (BI-D1870 + Palbociclib; first compound 0.1265 µM) | relative viability (BI-D1870 + Palbociclib; first compound 0.4 µM) | relative viability (BI-D1870 + Palbociclib; first compound 1.265 µM) | relative viability (BI-D1870 + Palbociclib; first compound 4 µM) | relative viability (BI-D1870 + Navitoclax; first compound 0.04 µM) | relative viability (BI-D1870 + Navitoclax; first compound 0.1265 µM) | relative viability (BI-D1870 + Navitoclax; first compound 0.4 µM) | relative viability (BI-D1870 + Navitoclax; first compound 1.265 µM) | relative viability (BI-D1870 + Navitoclax; first compound 4 µM) | relative viability (Zebularine + Crizotinib; first compound 1 µM) | relative viability (Zebularine + Crizotinib; first compound 3.162 µM) | relative viability (Zebularine + Crizotinib; first compound 10 µM) | relative viability (Zebularine + Crizotinib; first compound 31.62 µM) | relative viability (Zebularine + Crizotinib; first compound 100 µM) | relative viability (Zebularine + Linsitinib; first compound 1 µM) | relative viability (Zebularine + Linsitinib; first compound 3.162 µM) | relative viability (Zebularine + Linsitinib; first compound 10 µM) | relative viability (Zebularine + Linsitinib; first compound 31.62 µM) | relative viability (Zebularine + Linsitinib; first compound 100 µM)
1 | NCI-H3122 | 0.187 | 0.176 | 0.211 | 0.267 | 0.216 | 1 | 0.927 | 1.1 | 0.993 | 1.04 | 0.268 | 0.248 | 0.243 | 0.298 | 0.235 | 1.13 | 1.09 | 0.848 | 1.06 | 1.04
2 | PC-3 [JPC-3] | 0.578 | 0.511 | 0.53 | 0.567 | 0.478 | 0.812 | 0.739 | 0.743 | 0.809 | 0.734 | 1.09 | 0.943 | 0.64 | 0.699 | 0.476 | 1.05 | 0.956 | 0.843 | 0.856 | 0.492
3 | PC-14 | 0.56 | 0.468 | 0.474 | 0.356 | 0.138 | 1.08 | 0.961 | 0.991 | 1.07 | 0.928 | 1.01 | 0.81 | 0.271 | 0.141 | 0.122 | 1.07 | 0.996 | 0.281 | 0.143 | 0.179
4 | RERF-LC-KJ | 1.14 | 0.994 | 1.03 | 1.02 | 0.766 | 0.917 | 0.632 | 0.979 | 1.02 | 0.888 | 1.01 | 0.826 | – | 0.885 | 0.977 | 0.99 | 0.916 | – | 1.01 | 1.03
5 | SK-LU-1 | 0.384 | 0.361 | 0.329 | 0.404 | 0.318 | 1 | 1.09 | 0.852 | 0.54 | 0.0905 | 1.02 | 0.843 | 0.531 | 0.79 | 0.583 | 1.21 | 0.936 | 0.588 | 0.611 | 0.564
6 | SK-MES-1 | 0.342 | 0.318 | 0.314 | 0.285 | 0.266 | 1.25 | 1.23 | 1.15 | 1.07 | 0.692 | 1.07 | 1.03 | 0.645 | 0.648 | 0.325 | 1.15 | 1.14 | 0.78 | 0.567 | 0.299
7 | SW 1573 | 0.435 | 0.347 | 0.332 | 0.25 | 0.17 | 0.93 | 0.81 | 1.13 | 0.852 | 0.602 | 0.72 | 0.776 | 0.44 | 0.831 | 0.574 | 0.762 | 0.851 | 0.533 | 0.779 | 0.406
